{
  "source": "patent US20070149465A1",
  "about": "“COMPOSITIONS AND METHODS FOR PREVENTION AND TREATMENT OF CACHEXIA” (priority 2005, published 2007)",
  "key": {"AH-inoculated rats": {"test_system": "AH-inoculated rats", "assay": "Rat AH130 Ascites Hepatoma Model of Cancer Cachexia, AH-inoculated rats", "type": "in vivo, female Wistar rats", "method": "(§1) Following the method of Busquets et al (Busquets S, et al: Cancer Res 64:6725-31, 2004), female Wistar rats were inoculated (Day 0) intra-peritoneally (i.p.) with 2×10^7 cells/animal of Yoshida AH-130 ascites hepatoma (AH) cells. Control animals were inoculated with an equivalent amount of sterile saline solution. […] The animals were sacrificed on Day 5. Upon sacrifice, wet weights of heart and gastrocnemius muscle were determined. Carcass (after gastrocnemius, heart, and ascites removal) weight was also determined upon sacrifice.\n(§2) Treatment Group=Inoculation Type/Vehicle, or Treatment Group=Inoculation Type/F(x)R(y) where, Inoculation Type is either AH or Saline, F is formoterol fumarate, R is roxithromycin, and the parenthetical values are formoterol fumarate and roxithromycin doses (i.p. in mg/kg)."}, "Saline-inoculated rats": {"test_system": "Saline-inoculated rats", "assay": "Rat AH130 experiments, saline-inoculated control rats given drug", "type": "in vivo, female Wistar rats", "conditions": "for Carcass Weights Mean / Gastrocnemius Weights Mean / Heart Weights Mean: Saline, Day 5, normalized to 100 g Day 5 Total Body Weight", "method": "as §1, §2"}, "[1]": {"assay": "Solution osmolality of roxithromycin citrate solutions", "type": "physicochemical", "conditions": "25° C.", "method": "The solutions were syringe-filtered and analyzed by HPLC for [roxithromycin]. Roxithromycin Potency was assayed by a reverse-phase HPLC method that meets the requirements of the European Pharmacopeia (EP) Monograph for roxithromycin. Solution pH values were determined per USP <791> and solution osmolality values were determined per USP <785>. Aqueous solubility limits were determined for roxithromycin as a function of buffer type (phosphate versus citrate), buffer concentration, pH, and added co-solvent (ethanol)."}, "[2]": {"conditions": "Exp 1 Group 4, AH, F 0, R 5 mg/kg i.p., Day 5, normalized to 100 g Day 5 Total Body Weight"}, "[3]": {"conditions": "Exp 4 Group 21, AH, F 0, R 50 mg/kg i.p., Day 5, sample weight normalized to 100 g Day 5 Total Body Weight"}, "[4]": {"conditions": "Experiment 4, AH/F(0)R(50) group"}, "[5]": {"conditions": "Exp 2 Group 9, F 0, R 5 mg/kg i.p."}, "[6]": {"conditions": "Exp 3 Group 15, F 0, R 40 mg/kg i.p."}},
  "data": [
    {"smiles": "CC[C@H]1OC(=O)[C@H](C)[C@@H](O[C@H]2C[C@@](C)(OC)[C@@H](O)[C@H](C)O2)[C@H](C)[C@@H](O[C@@H]2O[C@H](C)C[C@H](N(C)C)[C@H]2O)[C@](C)(O)C[C@@H](C)/C(=N\\OCOCCOC)[C@H](C)[C@@H](O)[C@]1(C)O", "note": "[roxithromycin]", "values": [
      {"measurement": "Carcass Weights Mean", "setting": "AH-inoculated rats; [2]", "result": 94.35, "unit": "g"},
      {"measurement": "Gastrocnemius Weights Mean", "setting": "AH-inoculated rats; [2]", "result": 0.493, "unit": "g"},
      {"measurement": "Heart Weights Mean", "setting": "AH-inoculated rats; [2]", "result": 0.320, "unit": "g"},
      {"measurement": "Carcass Mean", "setting": "AH-inoculated rats; [3]", "result": 94.1},
      {"measurement": "Gastrocnemius Mean", "setting": "AH-inoculated rats; [3]", "result": 0.500},
      {"measurement": "Heart Mean", "setting": "AH-inoculated rats; [3]", "result": 0.338},
      {"measurement": "gastrocnemius muscle loss compared with AH/vehicle group", "setting": "AH-inoculated rats; Experiment 1, AH/F(0)R(5) group", "result": "approximately the same amount"},
      {"measurement": "gastrocnemius muscle weights compared with AH/vehicle group", "setting": "AH-inoculated rats; [4]", "result": "significantly larger"},
      {"measurement": "gastrocnemius weights compared with AH/F(1)R(0) group", "setting": "AH-inoculated rats; [4]", "result": "essentially identical"},
      {"measurement": "gastrocnemius weights compared with AH/F(1)R(50) group", "setting": "AH-inoculated rats; [4]", "result": "slightly less"},
      {"measurement": "muscle wasting associated with the AH rat model", "setting": "AH-inoculated rats; summary of Experiments 1-4", "result": "prevents muscle wasting"},
      {"measurement": "preventing AH-induced gastrocnemius muscle loss, roxithromycin alone compared with formoterol fumarate alone", "setting": "AH-inoculated rats; summary of Experiments 1-4", "result": "effective as formoterol fumarate alone"},
      {"measurement": "Carcass Weights Mean", "setting": "Saline-inoculated rats; [5]", "result": 97.6, "unit": "g"},
      {"measurement": "Gastrocnemius Weights Mean", "setting": "Saline-inoculated rats; [5]", "result": 0.575, "unit": "g"},
      {"measurement": "Heart Weights Mean", "setting": "Saline-inoculated rats; [5]", "result": 0.390, "unit": "g"},
      {"measurement": "Carcass Weights Mean", "setting": "Saline-inoculated rats; [6]", "result": 96.5, "unit": "g"},
      {"measurement": "Gastrocnemius Weights Mean", "setting": "Saline-inoculated rats; [6]", "result": 0.529, "unit": "g"},
      {"measurement": "Heart Weights Mean", "setting": "Saline-inoculated rats; [6]", "result": 0.400, "unit": "g"},
      {"measurement": "gastrocnemius muscle weights compared with Saline/vehicle group", "setting": "Saline-inoculated rats; Experiment 2, Saline/F(0)R(5) group", "result": "approximately the same"},
      {"measurement": "gastrocnemius muscle weights compared with Saline/vehicle control group", "setting": "Saline-inoculated rats; Experiment 3, Saline/F(0)R(40) group", "result": "not different"},
      {"measurement": "Solution Osmolaltiy", "setting": "[1]; 20 mM citrate, pH 4", "result": 43, "unit": "mOsm/kG"},
      {"measurement": "Solution Osmolaltiy", "setting": "[1]; 20 mM citrate, pH 5", "result": 47, "unit": "mOsm/kG"},
      {"measurement": "Solution Osmolaltiy", "setting": "[1]; 20 mM citrate, pH 6", "result": 57, "unit": "mOsm/kG"},
      {"measurement": "Solution Osmolaltiy", "setting": "[1]; 20 mM citrate, pH 7", "result": 60, "unit": "mOsm/kG"},
      {"measurement": "Solution Osmolaltiy", "setting": "[1]; 50 mM citrate, pH 4", "result": 110, "unit": "mOsm/kG"},
      {"measurement": "Solution Osmolaltiy", "setting": "[1]; 50 mM citrate, pH 5", "result": 124, "unit": "mOsm/kG"},
      {"measurement": "Solution Osmolaltiy", "setting": "[1]; 50 mM citrate, pH 6", "result": 139, "unit": "mOsm/kG"},
      {"measurement": "Solution Osmolaltiy", "setting": "[1]; 50 mM citrate, pH 7", "result": 138, "unit": "mOsm/kG"},
      {"measurement": "Solution Osmolaltiy", "setting": "[1]; 100 mM citrate, pH 4", "result": 203, "unit": "mOsm/kG"},
      {"measurement": "Solution Osmolaltiy", "setting": "[1]; 100 mM citrate, pH 5", "result": 243, "unit": "mOsm/kG"},
      {"measurement": "Solution Osmolaltiy", "setting": "[1]; 100 mM citrate, pH 6", "result": 260, "unit": "mOsm/kG"},
      {"measurement": "Solution Osmolaltiy", "setting": "[1]; 100 mM citrate, pH 7", "result": 271, "unit": "mOsm/kG"},
      {"measurement": "Solution Osmolaltiy", "setting": "[1]; 200 mM citrate, pH 4", "result": 366, "unit": "mOsm/kG"},
      {"measurement": "Solution Osmolaltiy", "setting": "[1]; 200 mM citrate, pH 5", "result": 462, "unit": "mOsm/kG"},
      {"measurement": "Solution Osmolaltiy", "setting": "[1]; 200 mM citrate, pH 6", "result": 521, "unit": "mOsm/kG"},
      {"measurement": "Solution Osmolaltiy", "setting": "[1]; 200 mM citrate, pH 7", "result": 532, "unit": "mOsm/kG"}
    ]}
  ]
}
